What was measured:
[1] = tested on: OVCAR‐8 cells; assay: Live-dead imaging of OVCAR-8 cells; assay type: cell-based, human; settings: OVCAR-8, 0.5 mM peptide, 6 h, RPMI with 10% FBS; negative peptide added first, then positive
Experimental: We used the human ovarian cancer cell line OVCAR‐8 as our initial model to identify the effect of the peptides on cells. All cell culture experiments were performed in an RPMI cell culture medium with 10% FBS. At 0.5 mM (i.e., above the overall CAC), the individual peptides mixed on the cells by promptly adding the first negative, then positive counterparts. The viability of the cells was measured for 6h through live‐dead imaging (Figure 3A). […] Because the peptides, if aggregate, form one‐dimensional structures, the shape of the aggregates is not likely to be effective on the action of the peptides. [II] has the lowest CAC and highest ordered aggregation (Figure 2B–D). Additionally, the equilibrium time of [II] aggregations was the shortest among the tried groups (Table 1 ). These all indicate that [II] peptides have the highest affinity to each other, which creates aggregations strong and fast enough to induce cell death.
To understand the effect of peptide aggregates versus peptides alone on the cell death identified with [WW] and [II], we performed a live/dead assay with individual peptides at 0.5 mM after 6h (Figure 3A). […] Similarly, the negative [WW] […] Positive charged peptides containing W are promiscuous residues for membrane damaging peptides, possibly because of W's “anchoring” role; W is abundant in membrane proteins, particularly near the lipid–water interface.^[ [37], [38] ^]
Positively and negatively charged self‐assembling peptides were mixed 30 min prior to experiment except where otherwise stated. The viability of the cell lines was measured by using CellTiter‐Glo 2.0 Reagent (Promega G9248). The luminescent signal was measured in accordance with the manufacturer's instructions. Measurements were carried out with BioTek Neo2SM microplate reader and relative viability was calculated. Live‐Dead assay was carried out using Viability/Cytotoxicity Assay kit (BIOTIUM 30002). After peptide treatment, cells were treated with calcein and ethidium homodimer in accordance with the manufacturer's instructions. […]

[2] = tested on: OVCAR‐8 cells; assay: Caspase-3 and GSDME cleavage, western blot; assay type: cell-based, human; settings: OVCAR-8, 50 µM cisplatin for 24 h
Description: Regulated cell death via an inducer is concentration and time‐dependent and therefore controllable. On the other hand, unregulated cell death cannot be controlled to the same extent as it mainly results from mechanical forces or temperature. The unregulated cell death releases an instantaneous burst of DAMPs, while the DAMP release from regulated cell death is prolonged. Therefore, regulated ICD is desired for a controlled immune response. Regulated necrotic cell deaths are caspase‐dependent.^[ [50], [51] ^] To identify whether [II]‐induced cell death is regulated, we analyzed the cleavage of caspase‐3, a known mediator of apoptosis, and GSDME mediated pyroptosis (regulated necrosis).^[ [2], [52] ^] We compared the caspase‐3 cleavage among different cell death modalities; we used cisplatin ‐ a known apoptosis inducer in the OVCAR‐8 cell line.^[ [53] ^] We also used heat treatment to induce multiple cell death modalities, including necrosis, apoptosis, and necroptosis.^[ [54] ^] Additionally, we applied a freeze/thaw (F/T) method, a common technique to induce unregulated necrosis.^[ [55] ^] […]
Protein samples were diluted in Laemmli buffer and boiled for 5 min at 96 °C. […] Lastly, western blotting luminol reagent solution was added on top of the membranes, and chemiluminescence signal was detected by Azure c600 Imaging Biosystems.

Compound | Cell viability / cell death, live-dead imaging [1] | Caspase-3 cleavage [2]
EFFWWE | did not show any cell death | –
N.N.[Cl][Pt][Cl] [Cisplatin, cisplatin] | – | showed caspase‐3 cleavage
KFFWWK | induced the cell death | –
KFFIIK | does not cause cell death | –
